Reference: US20230340491A1, “COMPOSITIONS AND METHODS FOR TREATING METABOLIC AND CARDIOVASCULAR DISEASES” (UNIVERSITY OF ROCHESTER, priority 2020, published 2023)

Columns and labels:
HFD-fed C57BL/6J mice = experiment: HFD-induced obesity and NAFLD in C57BL/6J mice treated with CRT0066101; assay type: in vivo, mouse; conditions: 10 mg/kg/day oral
Text: The mouse fat and liver tissues from the experimental mice were harvested after oral administration one and a half month.

[1] = test system: C57BL/6NJ mice fed NASH diet; experiment: NASH diet-induced NASH in C57BL/6NJ mice treated with PKD3 inhibitor; assay type: in vivo, mouse
Text: The NASH diet D09100310, purchased from Research Diet, is a rodent diet with 40 kcal % Fat (mostly palm oil), 20 kcal % fructose and 2% cholesterol.
Furtherly, to investigate the therapeutic potential of PKD3 inhibitor against NASH, we devised an experimental approach to model advanced NAFLD. […] To explore potential mechanisms by which PKD3 inhibitor treatment protect against diet-induced NASH. We applied RNA sequencing of livers collected at endpoint.

[2] = 100 ug/10 g per day oral, vs vehicle
[3] = 100 ug/10 g per day oral, 6 weeks

Experimental for WD-fed ApoE-/- mice: To further test whether PKD3 inhibitor prevents NAFLD development, we first studied ApoE^−/− mice with Western diet (WD) induced HS, after 8 weeks on WD, we then treat the mice with PKD3 inhibitor by oral administration (low dose; 100 ug/10 g per day) on continue fed WD condition.

CC[C@@H](N)CNc1ccnc(-c2cc(-c3cnn(C)c3)ccc2O)n1 [CRT0066101]
body weight at end-point (FIG. 2C-2D) (HFD-fed C57BL/6J mice; one and a half month, vs vehicle): dramatically decreased
liver weight (FIG. 2F) (HFD-fed C57BL/6J mice; vs vehicle): significantly reduced
running distance of physical exercise on treadmill (FIG. 2J) (HFD-fed C57BL/6J mice; vs vehicle): increased
serum alanine-aminotransferase (ALT) (FIG. 2I) (HFD-fed C57BL/6J mice; vs vehicle): decreased
serum aspartate aminotransferase (AST) (FIG. 2H) (HFD-fed C57BL/6J mice; vs vehicle): decreased
size of adipocytes (FIG. 2K) (HFD-fed C57BL/6J mice; vs vehicle): considerably diminished
weight of fat tissue (FIG. 2L-2N) (HFD-fed C57BL/6J mice; vs vehicle): considerably diminished
liver histology (FIG. 2G) (HFD-fed C57BL/6J mice; vehicle mice had ballooning, hepatocyte death, severe fibrosis, fatty liver): almost normal liver morphology, little hepatic ballooning and fibrosis as well as lipid deposits
fast blood glucose (FIG. 2R) (HFD-fed C57BL/6J mice; HFD-fed mice): decreased
glucose tolerance, OGTT (FIG. 2P) (HFD-fed C57BL/6J mice; HFD-fed mice): improved
insulin sensitivity, ITT (FIG. 2O) (HFD-fed C57BL/6J mice; HFD-fed mice): improved
non-fast blood glucose (FIG. 2Q) (HFD-fed C57BL/6J mice; HFD-fed mice): decreased
body fat (FIG. 3H-3K) (WD-fed ApoE-/- mice; [2]): radically reduced
body weight at end-point (FIG. 3B) (WD-fed ApoE-/- mice; [2]): decreased
liver weight (FIG. 3E) (WD-fed ApoE-/- mice; [2]): decreased
fibrosis score (FIG. 3F) (WD-fed ApoE-/- mice; H&E, Sirius Red, Oil Red O staining): alleviated
BAT (FIG. 3H-3K) (WD-fed ApoE-/- mice; treat vs non-treat mice): no changes
GFAT (FIG. 3H-3K) (WD-fed ApoE-/- mice; treat vs non-treat mice): no changes
hyperlipidemia, serum (FIG. 3G) (WD-fed ApoE-/- mice; two months treatment): decreased
liver coloration (FIG. 3D) (WD-fed ApoE-/- mice; yellowish coloration in vehicle mice): not any yellow color
BAT size and weight (FIG. 5I-5K) [1, 3]: reduction
NAS (FIG. 5G) [1, 3]: significantly decreased
gFAT size and weight (FIG. 5I-5K) [1, 3]: reduction
hepatic fibrosis (FIG. 5G) [1, 3]: significantly decreased
hepatomegaly induced by NASH diet [1, 3]: markedly attenuated
iFAT size and weight (FIG. 5I-5K) [1, 3]: reduction
liver fat (FIG. 5G) [1, 3]: significantly decreased
liver size (FIG. 5E-5F) [1, 3]: dramatically decreased
liver surface (FIG. 5E) [1, 3]: more smooth
liver weight (FIG. 5F) [1, 3]: dramatically decreased
nonfasting glucose (FIG. 5H) [1, 3]: most potent glucose-lowering effect
body weight at endpoint (FIG. 5C-5D) ([1]; 100 ug/10 g per day oral, 6 weeks, vs vehicle): reduced
body weight curve (FIG. 5B) ([1]; 12 weeks NASH diet, then 100 ug/10 g per day oral for 6 weeks on NASH diet, vs H2O): decreased
